From patent publication US20210093625A1, “COMBINATION THERAPY” (Celleron Therapeutics Limited, priority 2019, published 2021)

Columns and labels:
HDAC1 = HDAC1 (Homo sapiens, UniProt Q13547); assay: HDAC1 inhibition; type: biochemical
[1] = human patients, cited from earlier work
SW620 cells [2] = assay: RNA-seq of SW620 cells; type: cell-based, human
Experimental: We performed RNA-seq on polyA-enriched RNA to assess the effect of CXD101 on the global transcript profile in SW620 cells compared to the vehicle-alone (DMSO) treatment (18). The FASTQ data were aligned to the reference human genome (hg19) with STAR aligner and analysed for differential expression using Bioconductor and DESeq2 R suite (19). The sequencing data were of high quality with on average 92% of the reads able to be mapped to the genome (FIG. 1b).
(§1) SW620 cells were seeded into 6-well plates and left to adhere overnight. Cells were treated with 1 μM, 10 μM of CXD101 for 48 h. CT26 cells were seeded onto 100 mm plates and treated with 2.7 μM and 10 μM CXD101 for 72 h. After treatment cells were harvested and total RNA extracted by means of Promega ReliaPrepμ RNA Cell Miniprep System (Promega, USA). RNA was dissolved in RNAse free water and stored in −80° C. for future analysis. RNA concentration was measured by NanoDrop 2000 (Thermo Fisher Scientific, USA). Samples were qualified for library preparation if […]. Library preparation with poly (A) enrichment was performed by BGI.
(§2) FASTQ files for CXD101 and DMSO treated samples in three biological replicates were trimmed to remove adapters and low-quality bases with TrimGalore v.0.4.3(http://www.bioinformatics.babraham.ac.uk/projects/trim_galore/). The trimmed reads were aligned to the human reference genome (build hg19) with STAR aligner v.2.7 with two mismatches allowed. Differential gene expression analysis was done with the Bioconductor framework (v.3.8) and DESeq2 R package v.1.22, using read count data provided by the aligner. Genes were considered differentially expressed if the adjusted P, calculated using the Benjamini-Hochberg method in order to minimise the false discovery rate, was less than 0.01 (1%) and the change in expression level was greater than ˜2-fold as compared to DMSO control (e.g. |log_2(expression fold change) |>1).

physchem = details: 25 °C, aqueous buffer
colon26 cells = assay: RNAseq of colon26 cells in vitro; type: cell-based, mouse; details: for differentially expressed genes that are immune-related: out of 1142 DEGs
Source text: The RNAseq data was aligned to the reference M.musculus genome (mm10) with STAR aligner and analysed for differential expression. […] Out of 1142 differentially expressed genes identified following CXD101 treatment, 36% (416) were immune-related when analysed using the immunogenicity database (ref), and 34% (388) and 15% (176) when analysed with Import and Immunome databases (ref). We further evaluated transcripts identified in the colon26 RNAseq at the single gene level, focussing on murine genes which are homologues of the immune-related genes identified in human SW620 cells, which included genes in the murine MHC H2 complex. A number of H2 genes including class I and class II genes were induced including H2-D1, DMA, DMB1 and EB1 (FIG. 6).
as §1, §2

HDAC3 = HDAC3 (Homo sapiens, UniProt O15379); assay: HDAC3 inhibition; type: biochemical
HDAC3, sequence (O15379 whole entry, species assumed): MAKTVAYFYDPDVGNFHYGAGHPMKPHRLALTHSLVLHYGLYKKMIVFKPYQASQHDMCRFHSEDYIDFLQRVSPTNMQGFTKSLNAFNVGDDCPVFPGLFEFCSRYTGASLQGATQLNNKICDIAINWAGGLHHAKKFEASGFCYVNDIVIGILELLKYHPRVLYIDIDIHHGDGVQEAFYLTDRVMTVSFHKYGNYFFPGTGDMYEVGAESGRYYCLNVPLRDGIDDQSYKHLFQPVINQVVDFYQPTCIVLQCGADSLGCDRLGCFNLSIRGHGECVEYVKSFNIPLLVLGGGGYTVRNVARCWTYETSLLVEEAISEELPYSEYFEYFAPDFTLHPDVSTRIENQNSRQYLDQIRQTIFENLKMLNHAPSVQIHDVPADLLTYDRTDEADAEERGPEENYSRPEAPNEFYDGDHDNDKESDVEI
HDAC3, sequence (Q9Y618 395-489 partner limits assumed, species assumed): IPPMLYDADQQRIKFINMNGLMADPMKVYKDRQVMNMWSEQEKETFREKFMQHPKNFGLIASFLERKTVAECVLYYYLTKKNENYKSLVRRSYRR

colon26 tumours = assay: RNAseq of colon26 tumours; type: in vivo, Balb/c mice; details: log2FC >1 and FDR <1%
Experimental: To assess gene expression in tumours that were growing in vivo, we evaluated the effect of CXD101 in the syngeneic colon26 colon carcinoma model in tumours grown subcutaneously in Balb/c mice, with CXD101 given orally for two 5-day consecutive periods and performed RNAseq on RNA purified from the tumours. Formalin-fixed paraffin-embedded samples were also prepared to assess by immunohistochemistry (IHC) the tumour micro-environment.
The effect was dose-dependent, as more tumour-inhibition occurred with a higher dose of CXD101 (50 mg/kg compared to 15 mg/kg). […] We performed RNA seq on polyA-enriched RNA prepared from the tumours. In a similar way to the analysis of colon26 in vitro, the RNAseq data was aligned to the reference M.musculus genome (mm10) with STAR aligner and analysed for differential expression.

HDAC2 = HDAC2 (Homo sapiens, UniProt Q92769); assay: HDAC2 inhibition; type: biochemical
HDAC2, sequence (Q92769 whole entry, species assumed): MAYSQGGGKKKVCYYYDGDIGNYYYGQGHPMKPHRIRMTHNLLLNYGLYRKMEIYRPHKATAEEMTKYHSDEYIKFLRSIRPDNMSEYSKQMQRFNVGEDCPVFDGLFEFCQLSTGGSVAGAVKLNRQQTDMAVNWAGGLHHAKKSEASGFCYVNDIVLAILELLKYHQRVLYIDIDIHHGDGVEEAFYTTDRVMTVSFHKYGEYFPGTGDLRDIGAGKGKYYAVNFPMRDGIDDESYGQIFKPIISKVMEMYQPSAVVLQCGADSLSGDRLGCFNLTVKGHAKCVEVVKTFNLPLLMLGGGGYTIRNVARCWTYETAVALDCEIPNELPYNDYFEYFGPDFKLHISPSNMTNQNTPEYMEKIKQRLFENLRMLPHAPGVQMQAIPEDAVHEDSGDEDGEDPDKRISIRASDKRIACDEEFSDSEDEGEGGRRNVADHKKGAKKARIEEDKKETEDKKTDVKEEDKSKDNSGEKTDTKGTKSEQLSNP

SW620 cells [3] = assay: qPCR of single genes in SW620 cells; type: cell-based, human; details: control gene, FIG. 3
Experimental: Total RNA purified from DMSO- or CXD101treated cells was transcribed into cDNA according to the manufacturer's instructions (iScript cDNA Synthesis Kit, Bio-Rad, USA). qPCR was conducted according to the manufacturer's protocol (SsoAdvanced Universal SYBR Green Supermix, Bio-Rad Laboratories, USA) on CFX Connect Real-Time System thermocycler (Bio-Rad Laboratories, USA).

[4] = colon26 cells in vitro, log2 FC >1 and FDR <1%

HDAC1, sequence (Q13547 whole entry, species assumed): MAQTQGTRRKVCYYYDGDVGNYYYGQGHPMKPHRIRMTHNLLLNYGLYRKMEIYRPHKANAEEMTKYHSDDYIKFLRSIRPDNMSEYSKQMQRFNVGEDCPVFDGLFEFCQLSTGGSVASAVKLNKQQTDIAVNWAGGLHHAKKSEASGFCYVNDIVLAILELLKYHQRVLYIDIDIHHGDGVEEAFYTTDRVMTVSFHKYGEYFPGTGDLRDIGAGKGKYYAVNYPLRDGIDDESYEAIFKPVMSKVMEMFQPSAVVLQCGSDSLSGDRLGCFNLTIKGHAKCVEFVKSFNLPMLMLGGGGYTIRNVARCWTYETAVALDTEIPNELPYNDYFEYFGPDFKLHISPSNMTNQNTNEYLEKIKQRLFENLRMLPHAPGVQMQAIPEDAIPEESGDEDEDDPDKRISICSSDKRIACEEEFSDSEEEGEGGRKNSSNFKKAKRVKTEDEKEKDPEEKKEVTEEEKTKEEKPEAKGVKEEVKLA

Cc1nn(C)cc1CN1CCC(c2ccc(C(=O)Nc3ccccc3N)cc2)CC1 [CXD101, N-(2-aminophenyl)-4-(1-[(1,3-dimethyl-1H-pyrazol-4-yl)methyl]piperidin-4yl)benzamide]
IC50 (HDAC1): 63 nM | MTD ([1]; for 5 days in a 3-weekly cycle): 20 mg B.D. | safety profile [1]: favourable safety profile | proportion of DEGs down-regulated (SW620 cells [2]; SW620): 30% | proportion of DEGs up-regulated (SW620 cells [2]; SW620): 70% | number of differentially expressed transcripts (DEGs) (SW620 cells [2]; SW620, log2 FC >1 and FDR <1%, vs DMSO): about 2500 | solubility (physchem): ≥ 500 µg/mL | genes down-regulated (colon26 cells; [4]): 611 | genes up-regulated (colon26 cells; [4]): 1891 | size of DEG set in vitro (colon26 cells; colon26 cells, log2FC >1 and FDR <1%): 2502 | differentially expressed genes that are immune-related (colon26 cells; Immunome database): 15% | differentially expressed genes that are immune-related (colon26 cells; Import database): 34% | differentially expressed genes that are immune-related (colon26 cells; immunogenicity database): 36% | IC50 (HDAC3): 550 nM | size of DEG set in vivo (colon26 tumours): 1141 | IC50 (HDAC2): 570 nM | expression of REPIN1 (SW620 cells [3]): no effect
